Assay results published in patent publication US10829495B2, “Thieno-pyrimidine derivatives and uses thereof” (ZHEJIANG JIANFENG-YIEN BIOTECHNOLOGY CO., LTD., priority 2015, dated 2020).
pIC50: −log10 of the molar value.

Key:
[1] = target: EGFR T790M (Homo sapiens, UniProt P00533, T790M); test: EGFR enzyme assay; format: biochemical; settings: T790M mutant
Experimental: The following TABLE II lists compounds representative of the invention and their activity in EGFR assays. In these assays, the following grading was used: A: <0.1 μM; B: 0.1-10 μM.

[2] = tested on: NCI-H1975 cells; test: Efficacy studies in tumor bearing mice (NCI-H1975 xenograft); format: in vivo; settings: female nu/nu mice, subcutaneous NCI-H1975 tumors, orally at 40 mg/kg daily
Experimental: 2. Efficacy Studies in Tumor Bearing Mice:
Female nu/nu mice were implanted with 1×10^7 NCI-H1975 cells in 50% Matrigel subcutaneously in the flank. Tumors were pair matched with a group size of 10 mice. Test compound was administrated orally at 40 mg/kg daily.

Sequence of EGFR T790M (P00533 25-1210 T790M): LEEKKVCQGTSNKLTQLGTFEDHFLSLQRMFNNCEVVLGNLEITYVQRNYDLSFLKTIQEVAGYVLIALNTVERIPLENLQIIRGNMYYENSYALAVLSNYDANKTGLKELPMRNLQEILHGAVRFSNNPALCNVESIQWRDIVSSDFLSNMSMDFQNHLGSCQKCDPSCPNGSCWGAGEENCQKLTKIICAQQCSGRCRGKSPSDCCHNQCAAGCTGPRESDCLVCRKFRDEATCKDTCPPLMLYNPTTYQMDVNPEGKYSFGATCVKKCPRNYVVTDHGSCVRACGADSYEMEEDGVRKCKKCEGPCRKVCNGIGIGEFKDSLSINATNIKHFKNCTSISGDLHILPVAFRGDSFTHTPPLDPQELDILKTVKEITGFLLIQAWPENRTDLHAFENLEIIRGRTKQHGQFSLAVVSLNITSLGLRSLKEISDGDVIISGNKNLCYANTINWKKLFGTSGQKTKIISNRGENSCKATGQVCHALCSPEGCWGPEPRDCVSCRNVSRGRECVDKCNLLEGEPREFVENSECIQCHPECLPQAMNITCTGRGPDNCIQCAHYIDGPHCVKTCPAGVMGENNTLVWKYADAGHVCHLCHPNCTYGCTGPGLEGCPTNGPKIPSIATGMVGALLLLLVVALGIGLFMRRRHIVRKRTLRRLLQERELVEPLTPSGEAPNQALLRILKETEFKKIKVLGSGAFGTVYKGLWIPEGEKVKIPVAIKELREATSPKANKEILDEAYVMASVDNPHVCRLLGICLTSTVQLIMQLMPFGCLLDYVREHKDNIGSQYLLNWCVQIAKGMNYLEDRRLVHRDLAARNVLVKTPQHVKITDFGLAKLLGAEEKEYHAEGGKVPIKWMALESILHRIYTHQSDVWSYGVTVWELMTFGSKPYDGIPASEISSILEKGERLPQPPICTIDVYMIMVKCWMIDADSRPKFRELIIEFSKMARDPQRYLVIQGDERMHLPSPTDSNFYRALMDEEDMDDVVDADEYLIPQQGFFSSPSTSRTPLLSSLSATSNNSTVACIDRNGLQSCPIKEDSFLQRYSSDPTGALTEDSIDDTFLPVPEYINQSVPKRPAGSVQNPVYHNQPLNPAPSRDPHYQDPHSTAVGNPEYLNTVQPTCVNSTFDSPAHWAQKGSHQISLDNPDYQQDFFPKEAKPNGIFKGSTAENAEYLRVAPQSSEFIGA

SMILES	pIC50 [1]	Tumor growth inhibition (%) [2]
C=CC(=O)Nc1cc(Nc2nc(-c3cn(C)c4ccccc34)c3sccc3n2)c(OC)cc1N(C)CCN(C)C [Compound 1, N-[2-[2-(dimethylamino)ethyl-methyl-amino]-4-methoxy-5-[[4-(1-methylindol-3-yl)thieno[3,2-d]pyrimidin-2-yl]amino]phenyl]prop-2-enamide]	> 7.00	>75%
C=CC(=O)Nc1cc(Nc2nc(-c3cn(C)c4ccc(OC)cc34)c3sccc3n2)c(OC)cc1N(C)CCN(C)C [Compound 6, N-[2-[2-(dimethylamino)ethyl-methyl-amino]-4-methoxy-5-[[4-(5-methoxy-1-methyl-indol-3-yl)thieno[3,2-d]pyrimidin-2-yl]amino]phenyl]prop-2-enamide]	> 7.00	–
C=CC(=O)Nc1cc(Nc2nc(-c3cn(C(C)C)c4ccccc34)c3sccc3n2)c(OC)cc1N(C)CCN(C)C [Compound 3, N-[2-[2-(dimethylamino)ethyl-methyl-amino]-5-[[4-(1-isopropylindol-3-yl)thieno[3,3-d]pyrimidin-2-yl]amino]-4-methoxy-phenyl]prop-2-enamide]	> 7.00	–
C=CC(=O)Nc1cc(Nc2nc(-c3cn(C)c4cc(OC)ccc34)c3sccc3n2)c(OC)cc1N(C)CCN(C)C [Compound 7, N-[2-[2-(dimethylamino)ethyl-methyl-amino]-4-methoxy-5-[[4-(6-methoxy-1-methyl-indol-3-yl)thieno[3,2-d]pyrimidin-2-yl]amino]phenyl]prop-2-enamide]	5.00 to 7.00	–

Now from value to compound, other results behind:

pIC50 [1]	SMILES	Tumor growth inhibition (%) [2]
> 7.00	C=CC(=O)Nc1cc(Nc2nc(-c3cn(C)c4cc(C)ccc34)c3sccc3n2)c(OC)cc1N(C)CCN(C)C [Compound 8, N-[2-[2-(dimethylamino)ethyl-methyl-amino]-5-[[4-(1,6-dimethylindol-3-yl)thieno[3,2-d]pyrimidin-2-yl]amino]-4-methoxy-phenyl]prop-2-enamide]	–
5.00 to 7.00	C=CC(=O)Nc1cc(Nc2nc(-c3cn(C(C)(C)C)c4ccccc34)c3sccc3n2)c(OC)cc1N(C)CCN(C)C [Compound 4, N-[5-[[4-(1-tert-butylindol-3-yl)thieno[3,2-d]pyrimidin-2-yl]amino]-2-[2-(dimethylamino)ethyl-methyl-amino]-4-methoxy-phenyl]prop-2-enamide]	–
> 7.00	C=CC(=O)Nc1cc(Nc2nc(-c3cn(CC)c4ccccc34)c3sccc3n2)c(OC)cc1N(C)CCN(C)C [Compound 2, N-[2-[2-(dimethylamino)ethyl-methyl-amino]-5-[[4-(1-ethylindol-3-yl)thieno[3,2-d]pyrimidin-2-yl]amino]-4-methoxy-phenyl]prop-2-enamide]	>75%
> 7.00	C=CC(=O)Nc1cc(Nc2nc(-c3cn(C)c4ccc(C)cc34)c3sccc3n2)c(OC)cc1N(C)CCN(C)C [Compound 5, N-[2-[2-(dimethylamino)ethyl-methyl-amino]-5-[[4-(1,5-dimethylindol-3-yl)thienol[3,2-d]pyrimidin-2-yl]amino]-4-methoxy-phenyl]prop-2-enamide]	–
